Earlier results as cited in patent US12133892B2, “Methods and compositions for increasing susceptibility to radiation treatment by inhibiting suppression of numerical chromosomal instability of cancer cells” (MEMORIAL SLOAN KETTERING CANCER CENTER, priority 2015, dated 2024).

Tests used:
breast cancer model = conditions: mice, twice a day for 28 days, orally 10, 25, 50 mg/kg
Kif2b = conditions: read-out: IC50 in inhibiting Kif2b
MCAK = molecular target: T1, MCAK (Homo sapiens, UniProt Q99661); conditions: read-out: IC50 in inhibiting MCAK
T1 sequence (Q99661 1-725): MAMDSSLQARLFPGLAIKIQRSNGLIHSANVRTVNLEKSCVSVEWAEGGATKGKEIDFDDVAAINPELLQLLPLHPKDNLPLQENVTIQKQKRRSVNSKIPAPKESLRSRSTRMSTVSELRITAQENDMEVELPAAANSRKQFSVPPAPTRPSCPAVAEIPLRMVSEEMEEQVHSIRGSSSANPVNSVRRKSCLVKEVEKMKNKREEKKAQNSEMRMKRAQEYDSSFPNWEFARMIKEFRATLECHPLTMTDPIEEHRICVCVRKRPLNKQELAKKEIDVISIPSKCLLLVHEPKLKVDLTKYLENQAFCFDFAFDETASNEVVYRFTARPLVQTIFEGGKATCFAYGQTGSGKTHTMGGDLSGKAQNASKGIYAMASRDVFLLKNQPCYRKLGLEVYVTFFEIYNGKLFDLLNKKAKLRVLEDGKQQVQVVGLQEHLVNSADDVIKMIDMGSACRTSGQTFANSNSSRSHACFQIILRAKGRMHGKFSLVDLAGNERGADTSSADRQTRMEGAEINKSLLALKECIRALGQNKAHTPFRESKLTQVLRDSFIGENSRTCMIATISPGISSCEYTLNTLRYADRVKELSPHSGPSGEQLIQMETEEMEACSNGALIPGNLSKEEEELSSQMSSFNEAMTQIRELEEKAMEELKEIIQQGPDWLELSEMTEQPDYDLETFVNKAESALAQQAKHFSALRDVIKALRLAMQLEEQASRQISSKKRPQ

Bub1 = Bub1 (Homo sapiens, UniProt O43683)
Sequence of Bub1 (O43683 whole entry, species assumed): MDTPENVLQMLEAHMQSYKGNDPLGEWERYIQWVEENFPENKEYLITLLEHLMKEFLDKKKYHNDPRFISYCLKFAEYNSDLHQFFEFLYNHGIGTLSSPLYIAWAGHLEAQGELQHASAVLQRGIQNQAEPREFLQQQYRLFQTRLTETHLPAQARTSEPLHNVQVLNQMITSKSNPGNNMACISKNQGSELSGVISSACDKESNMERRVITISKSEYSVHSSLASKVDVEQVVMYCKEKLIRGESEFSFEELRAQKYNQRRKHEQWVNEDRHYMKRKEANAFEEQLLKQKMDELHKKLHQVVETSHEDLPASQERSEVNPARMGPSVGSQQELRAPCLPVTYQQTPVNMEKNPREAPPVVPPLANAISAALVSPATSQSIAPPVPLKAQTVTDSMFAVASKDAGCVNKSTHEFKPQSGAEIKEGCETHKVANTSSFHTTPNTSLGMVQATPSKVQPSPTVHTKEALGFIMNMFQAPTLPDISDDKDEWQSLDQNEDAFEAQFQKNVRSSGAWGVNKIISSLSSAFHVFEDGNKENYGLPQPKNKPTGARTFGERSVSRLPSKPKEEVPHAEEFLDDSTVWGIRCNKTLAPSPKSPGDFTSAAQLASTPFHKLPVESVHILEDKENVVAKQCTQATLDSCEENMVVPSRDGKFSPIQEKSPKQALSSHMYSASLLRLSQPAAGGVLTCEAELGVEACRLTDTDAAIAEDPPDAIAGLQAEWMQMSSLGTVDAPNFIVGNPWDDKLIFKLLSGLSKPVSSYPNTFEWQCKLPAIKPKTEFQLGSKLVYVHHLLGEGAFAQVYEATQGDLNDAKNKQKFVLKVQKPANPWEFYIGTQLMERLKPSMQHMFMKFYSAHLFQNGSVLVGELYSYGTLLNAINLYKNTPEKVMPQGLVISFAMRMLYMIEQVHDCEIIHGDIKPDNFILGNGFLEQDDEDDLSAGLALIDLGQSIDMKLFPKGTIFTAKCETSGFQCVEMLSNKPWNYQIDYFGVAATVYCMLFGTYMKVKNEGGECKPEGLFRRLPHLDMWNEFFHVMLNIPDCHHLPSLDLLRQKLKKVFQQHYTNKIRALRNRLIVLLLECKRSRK

[1] = tested on: triple negative breast cancer, colon cancer and liver cancer; conditions: animal models of triple negative breast cancer
[2] = mice, 7 days, 7.5, 22.5, 75.0 mg/kg twice a day oral
PLK4 = molecular target: T2, PLK4 (Homo sapiens, UniProt O00444); conditions: in vitro; read-out: inhibition constant (Ki)
T2 sequence (O00444 1-970): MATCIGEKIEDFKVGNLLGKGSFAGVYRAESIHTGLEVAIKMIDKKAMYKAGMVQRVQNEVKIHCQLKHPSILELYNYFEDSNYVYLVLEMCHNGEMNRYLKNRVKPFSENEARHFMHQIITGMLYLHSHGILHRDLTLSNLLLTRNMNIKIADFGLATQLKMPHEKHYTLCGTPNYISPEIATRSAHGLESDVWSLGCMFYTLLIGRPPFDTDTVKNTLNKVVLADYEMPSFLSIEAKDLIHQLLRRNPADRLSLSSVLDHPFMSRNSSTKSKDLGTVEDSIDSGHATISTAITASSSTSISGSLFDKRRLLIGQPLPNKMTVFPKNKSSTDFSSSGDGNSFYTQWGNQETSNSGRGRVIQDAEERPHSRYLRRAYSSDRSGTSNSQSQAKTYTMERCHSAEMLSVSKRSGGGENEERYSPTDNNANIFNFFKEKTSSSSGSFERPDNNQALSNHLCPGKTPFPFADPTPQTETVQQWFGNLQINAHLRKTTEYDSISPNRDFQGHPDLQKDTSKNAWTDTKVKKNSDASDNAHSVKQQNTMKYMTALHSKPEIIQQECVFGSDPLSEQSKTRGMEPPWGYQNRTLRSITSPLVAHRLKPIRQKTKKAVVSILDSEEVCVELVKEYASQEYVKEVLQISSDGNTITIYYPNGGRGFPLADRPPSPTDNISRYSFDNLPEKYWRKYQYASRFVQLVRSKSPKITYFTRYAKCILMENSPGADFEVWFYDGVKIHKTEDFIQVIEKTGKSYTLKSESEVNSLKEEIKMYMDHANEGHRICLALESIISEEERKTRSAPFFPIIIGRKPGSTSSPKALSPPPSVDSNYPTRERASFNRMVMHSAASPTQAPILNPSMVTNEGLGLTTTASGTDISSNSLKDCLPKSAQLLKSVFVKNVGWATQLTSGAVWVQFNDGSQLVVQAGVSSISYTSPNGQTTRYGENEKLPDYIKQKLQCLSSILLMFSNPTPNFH

human glioblastoma = conditions: 100 mg/kg

COCCOc1cnc(Sc2cc(C)c(-c3csc(NC(=O)c4ccncc4)n3)c(C)c2)cn1 [TAI-95]
oral efficacy in vivo (breast cancer model): excellent oral efficacy

CC1=C(C(=O)OC(C)C)C(c2ccc(Cl)cc2)n2c(s/c(=C\c3ccc(OCC(=O)O)cc3)c2=O)=N1 (stereo not drawn) [DHTP, (Z)-2-(4-((5-(4-chlorophenyl)-6-(isopropoxycarbonyl)-7-methyl-3-oxo-3,5-dihydro-2H-thiazolo[3,2-a]pyrimidin-2-ylidene)methyl)phenoxy)acetic acid]
IC50 (Kif2b): 1200 nM
IC50 (MCAK): 4600 nM

CC(C)(C)n1nc(Cc2ccccc2O)c2c(N)ncnc21 [2OH-BNPP1]
IC50 (Bub1): ~250 nM

COc1cc2c(cc1F)C(c1ccccc1Cl)=Nc1c(n[nH]c1C)N2 [R1530]
expression of mitotic checkpoint kinase BubR1 (BubR1): downregulates

COc1ccc(Oc2cc(C)c(-c3csc(NC(=O)c4ccncc4)n3)c(C)c2)cc1 [TAI-1]
oral efficacy in vivo [1]: effective orally
change in body weight, organ weight, and plasma indices [2]: no significant change

COc1c(Nc2cc(C)[nH]n2)nc(Sc2ccc(S(=O)(=O)Cc3cccc([N+](=O)[O-])c3F)cc2F)nc1N1CCCCC1 [centrinone-B]
Ki (PLK4): 0.6 nM
centrosome depletion at concentration (centrosome): 500 nM

COc1c(Nc2cc(C)[nH]n2)nc(Sc2ccc(S(=O)(=O)Cc3cccc([N+](=O)[O-])c3F)cc2F)nc1N1CCOCC1 [centrinone]
centrosome depletion at concentration (centrosome): 100 nM

COc1ccc2c(c1)[C@]1(C[C@H]1c1ccc3c(/C=C/c4ccc(CN5C[C@@H](C)O[C@@H](C)C5)cc4)n[nH]c3c1)C(=O)N2 [CFI-400945]
chromosome missegregation rates (breast cancer cell lines): increase chromosome missegregation rates

CCc1cccc(CC)c1NC(=O)c1nn(C)c2c1CCc1cnc(Nc3ccc(C(=O)NC4CCN(C)CC4)cc3OC(F)(F)F)nc1-2 [NMS-P715]
radiosensitization of human glioblastoma (human glioblastoma): enhances radiosensitization of human glioblastoma
